US8916570B2 (The United States of America, as represented by the …, priority 2008, dated 2014)

How the values were obtained:
[1] = target: T1, hA1AR (Homo sapiens, UniProt P30542); test: Binding at hA1AR, CHO membranes (Example 7); settings: read-out: % inhibition hA1
T1 construct: expressed in transfected cells; host or cells: CHO
T1 sequence (P30542 1-326): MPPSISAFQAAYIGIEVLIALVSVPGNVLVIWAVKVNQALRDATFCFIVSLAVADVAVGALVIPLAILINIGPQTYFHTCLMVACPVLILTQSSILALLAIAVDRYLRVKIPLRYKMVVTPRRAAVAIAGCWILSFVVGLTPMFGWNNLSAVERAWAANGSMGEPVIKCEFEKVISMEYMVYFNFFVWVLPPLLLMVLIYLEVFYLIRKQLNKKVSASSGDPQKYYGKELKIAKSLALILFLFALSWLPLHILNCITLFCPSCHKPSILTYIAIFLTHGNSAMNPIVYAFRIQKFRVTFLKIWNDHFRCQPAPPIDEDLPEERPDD
Method: (§1) CHO cells stably expressing the recombinant hA1, hA3, and rA3Rs, and HEK-293 cells stably expressing the hA2AAR were cultured in Dulbecco's modified Eagle medium (DMEM) and F12 (1:1) supplemented with 10% fetal bovine serum, 100 units/mL penicillin, 100 μg/mL streptomycin, and 2 μmol/mL glutamine. In addition, 800 μg/mL geneticin was added to the A2A media, while 500 μg/mL hygromycin was added to the A1 and A3 media. After harvesting, cells were homogenized and suspended in PBS. Cells were then centrifuged at 240 g for 5 min, and the pellet was resuspended in 50 mM Tris-HCl buffer (pH 7.5) containing 10 mM MgCl2. The suspension was homogenized and was then ultra-centrifuged at 14,330 g for 30 min at 4° C. […] The protein concentration was measured using the BCA Protein Assay Kit from Pierce Biotechnology, Inc. (Rockford, Ill.).
(§2) Into each tube in the binding assay was added 50 μL of increasing concentrations of the test ligand in Tris-HCl buffer (50 mM, pH 7.5) containing 10 mM MgCl2, 50 μL of the appropriate agonist radioligand, and finally 100 μL of membrane suspension. […] For the A2AAR (20 μg/tube) the radioligand used was [^3H]53 (10 nM). […] Nonspecific binding was determined using a final concentration of 10 μM 51 diluted with the buffer. The mixtures were incubated at 25° C. for 60 min in a shaking water bath. Binding reactions were terminated by filtration through Brandel GF/B filters under a reduced pressure using a M-24 cell harvester (Brandel, Gaithersburg, Md.). Filters were washed three times with 3 mL of 50 mM ice-cold Tris-HCl buffer (pH 7.5). […] Filters for A3AR binding were counted using a Packard COBRA™ II γ-counter. The Ki values were determined using GraphPad Prism for all assays.

[2] = target: T2, hA2AAR (Homo sapiens, UniProt P29274); test: Binding at hA2AAR, HEK-293 membranes (Example 7); settings: for inhibition at 10 µM: read-out: % inhibition hA2A; for Ki: read-out: Affinity (Ki, nM) hA2A
T2 construct: expressed in transfected cells
Method: After harvesting, cells were homogenized and suspended in PBS.
Nonspecific binding was determined using a final concentration of 10 μM 51 diluted with the buffer.

[3] = target: T3, hA3AR (Homo sapiens, UniProt P0DMS8); test: Binding at hA3AR, CHO membranes (Example 7); settings: read-out: Affinity (Ki, nM) hA3
T3 construct: expressed in transfected cells; host or cells: CHO
T3 sequence (P0DMS8 1-318): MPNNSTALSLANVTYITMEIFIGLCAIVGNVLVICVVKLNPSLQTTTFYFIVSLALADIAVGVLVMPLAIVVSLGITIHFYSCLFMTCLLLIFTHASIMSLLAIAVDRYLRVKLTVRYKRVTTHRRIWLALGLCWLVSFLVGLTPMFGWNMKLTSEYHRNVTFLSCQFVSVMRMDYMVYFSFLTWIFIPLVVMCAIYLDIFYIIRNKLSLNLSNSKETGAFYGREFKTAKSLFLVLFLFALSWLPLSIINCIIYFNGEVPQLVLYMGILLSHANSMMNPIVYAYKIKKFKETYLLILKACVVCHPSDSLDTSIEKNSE
Method: as §1, §2

T2 sequence (P29274 whole entry): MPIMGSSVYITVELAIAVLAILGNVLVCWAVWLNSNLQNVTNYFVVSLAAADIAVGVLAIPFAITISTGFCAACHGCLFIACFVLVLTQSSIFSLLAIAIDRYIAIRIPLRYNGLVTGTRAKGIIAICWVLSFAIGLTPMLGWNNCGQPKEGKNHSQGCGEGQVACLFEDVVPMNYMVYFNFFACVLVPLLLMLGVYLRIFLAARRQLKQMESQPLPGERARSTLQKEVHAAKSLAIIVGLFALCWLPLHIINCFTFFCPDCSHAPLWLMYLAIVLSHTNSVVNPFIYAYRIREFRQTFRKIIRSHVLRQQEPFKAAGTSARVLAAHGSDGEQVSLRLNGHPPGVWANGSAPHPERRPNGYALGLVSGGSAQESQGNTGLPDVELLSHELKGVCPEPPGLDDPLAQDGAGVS

SMILES	inhibition at 10 µM [1] [%]	inhibition at 10 µM [2] [%]	Ki [3] [nM]	Ki [2] [nM]
CNC(=O)[C@@]12C[C@@H]1[C@@H](n1cnc3c(NC)nc(C#Cc4cc5ccccc5c5ccccc45)nc31)[C@H](O)[C@@H]2O [Compound 326, (1S,2R,3S,4R,5S)-2,3-Dihydroxy-N-methyl-4-(6-(methylamino)-2-(phenanthren-9-ylethynyl)-9H-purin-9-yl)bicyclo[3.1.0]hexane-1-carboxamide]	15	52	3.48 ± 1.36	
CNC(=O)[C@@]12C[C@@H]1[C@@H](n1cnc3c(NC)nc(C#Cc4ccc(C(C)(C)C)cc4)nc31)[C@H](O)[C@@H]2O [Compound 322, (1S,2R,3S,4R,5S)-4-(2-((4-tert-Butylphenyl)ethynyl)-6-(methylamino)-9H-purin-9-yl)-2,3-dihydroxy-N-methylbicyclo[3.1.0]hexane-1-carboxamide]	27	7	10.1 ± 1.9	
CNC(=O)[C@@]12C[C@@H]1[C@@H](n1cnc3c(NC)nc(C#Cc4ccccn4)nc31)[C@H](O)[C@@H]2O [Compound 310, (1S,2R,3S,4R,5S)-2,3-Dihydroxy-N-methyl-4-(6-(methylamino)-2-(pyridin-2-ylethynyl)-9H-purin-9-yl)bicyclo[3.1.0]hexane-1-carboxamide]	13	13		
CNC(=O)[C@@]12C[C@@H]1[C@@H](n1cnc3c(NC)nc(C#Cc4cccc(F)c4)nc31)[C@H](O)[C@@H]2O [Compound 312, (1S,2R,3S,4R,5S)-4-(2-((3-Fluorophenyl)ethynyl)-6-(methylamino)-9H-purin-9-yl)-2,3-dihydroxy-N-methylbicyclo[3.1.0]hexane-1-carboxamide]	14	10	0.97 ± 0.24	
CNC(=O)[C@@]12C[C@@H]1[C@@H](n1cnc3c(NC)nc(C#Cc4cc(F)cc(F)c4)nc31)[C@H](O)[C@@H]2O [Compound 320, (1S,2R,3S,4R,5S)-4-(2-((3,5-Difluorophenyl)ethynyl)-6-(methylamino)-9H-purin-9-yl)-2,3-dihydroxy-N-methylbicyclo[3.1.0]hexane-1-carboxamide]	6	47	1.66 ± 0.36	
CNC(=O)[C@@]12C[C@@H]1[C@@H](n1cnc3c(NCc4cccc(Cl)c4)nc(C#Cc4ccc(F)c(F)c4)nc31)[C@H](O)[C@@H]2O [Compound 331, (1S,2R,3S,4R,5S)-4-(6-(3-Chlorobenzylamino)-2-((3,4-difluorophenyl)ethynyl)-9H-purin-9-yl)-2,3-dihydroxy-N-methylbicyclo[3.1.0]hexane-1-carboxamide]	3	41		
CNC(=O)[C@@]12C[C@@H]1[C@@H](n1cnc3c(NC)nc(C#Cc4ccc(F)c(F)c4)nc31)[C@H](O)[C@@H]2O [Compound 319, (1S,2R,3S,4R,5S)-4-(2-((3,4-Difluorophenyl)ethynyl)-6-(methylamino)-9H-purin-9-yl)-2,3-dihydroxy-N-methylbicyclo[3.1.0]hexane-1-carboxamide]	6	6	1.65 ± 0.08	
CCc1ccc(C#Cc2nc(NC)c3ncn([C@H]4[C@H](O)[C@H](O)[C@]5(C(=O)NC)C[C@H]45)c3n2)cc1 [Compound 321, (1S,2R,3S,4R,5S)-4-(2-((4-Ethylphenyl)ethynyl)-6-(methylamino)-9H-purin-9-yl)-2,3-dihydroxy-N-methylbicyclo[3.1.0]hexane-1-carboxamide]	14	38	3.78 ± 1.16	
CNC(=O)[C@@]12C[C@@H]1[C@@H](n1cnc3c(NC)nc(C#Cc4cccc5ccccc45)nc31)[C@H](O)[C@@H]2O [Compound 325, (1S,2R,3S,4R,5S)-2,3-Dihydroxy-N-methyl-4-(6-(methylamino)-2-(naphthalen-1-ylethynyl)-9H-purin-9-yl)bicyclo[3.1.0]hexane-1-carboxamide]	24	34	1.67 ± 0.18	
CNC(=O)[C@@]12C[C@@H]1[C@@H](n1cnc3c(NC)nc(C#Cc4cccc(Cl)c4)nc31)[C@H](O)[C@@H]2O [Compound 315, (1S,2R,3S,4R,5S)-4-(2-((3-Chlorophenyl)ethynyl)-6-(methylamino)-9H-purin-9-yl)-2,3-dihydroxy-N-methylbicyclo[3.1.0]hexane-1-carboxamide]	11		1.6 ± 0.6	1270 ± 300
CNC(=O)[C@@]12C[C@@H]1[C@@H](n1cnc3c(NC)nc(C#Cc4cccc(N)c4)nc31)[C@H](O)[C@@H]2O [Compound 318, (1S,2R,3S,4R,5S)-4-(2-((3-Aminophenyl)ethynyl)-6-(methylamino)-9H-purin-9-yl)-2,3-dihydroxy-N-methylbicyclo[3.1.0]hexane-1-carboxamide]	16	19	1.07 ± 0.14	
CNC(=O)[C@@]12C[C@@H]1[C@@H](n1cnc3c(NC)nc(C#Cc4ccc(-c5ccccc5)cc4)nc31)[C@H](O)[C@@H]2O [Compound 324, (1S,2R,3S,4R,5S)-4-(2-(Biphenyl-4-ylethynyl)-6-(methylamino)-9H-purin-9-yl)-2,3-dihydroxy-N-methylbicyclo[3.1.0]hexane-1-carboxamide]	20	29	3.1 ± 1.26	
CNC(=O)[C@@]12C[C@@H]1[C@@H](n1cnc3c(NCc4cccc(Cl)c4)nc(C#Cc4cccc(Cl)c4)nc31)[C@H](O)[C@@H]2O [Compound 330, (1S,2R,3S,4R,5S)-4-(6-(3-Chlorobenzylamino)-2-((3-chlorophenyl)ethynyl)-9H-purin-9-yl)-2,3-dihydroxy-N-methylbicyclo[3.1.0]hexane-1-carboxamide]	0		1.95	1620
CNC(=O)[C@@]12C[C@@H]1[C@@H](n1cnc3c(NC)nc(C#Cc4ccc(C(C)=O)cc4)nc31)[C@H](O)[C@@H]2O [Compound 323, (1S,2R,3S,4R,5S)-4-(2-((4-Acetylphenyl)ethynyl)-6-(methylamino)-9H-purin-9-yl)-2,3-dihydroxy-N-methylbicyclo[3.1.0]hexane-1-carboxamide]	8	62	2.57 ± 0.78	
CNC(=O)[C@@]12C[C@@H]1[C@@H](n1cnc3c(NC)nc(C#Cc4ccccc4F)nc31)[C@H](O)[C@@H]2O [Compound 311, (1S,2R,3S,4R,5S)-4-(2-((2-Fluorophenyl)ethynyl)-6-(methylamino)-9H-purin-9-yl)-2,3-dihydroxy-N-methylbicyclo[3.1.0]hexane-1-carboxamide]	20	17	0.97 ± 0.38	
CNC(=O)[C@@]12C[C@@H]1[C@@H](n1cnc3c(NC)nc(C#Cc4ccc(Cl)cc4)nc31)[C@H](O)[C@@H]2O [Compound 316, (1S,2R,3S,4R,5S)-4-(2-((4-Chlorophenyl)ethynyl)-6-(methylamino)-9H-purin-9-yl)-2,3-dihydroxy-N-methylbicyclo[3.1.0]hexane-1-carboxamide]	13	30	1.22 ± 0.31	
CNC(=O)[C@@]12C[C@@H]1[C@@H](n1cnc3c(NCc4cccc(Cl)c4)nc(C#Cc4ccc5ccc6cccc7ccc4c5c67)nc31)[C@H](O)[C@@H]2O [Compound 336, (1S,2R,3S,4R,5S)-4-(6-(3-Chlorobenzylamino)-2-(pyren-1-ylethynyl)-9H-purin-9-yl)-2,3-dihydroxy-N-methylbicyclo[3.1.0]hexane-1-carboxamide]	6	66	68.3 ± 12.5	
CNC(=O)[C@@]12C[C@@H]1[C@@H](n1cnc3c(NC)nc(C#Cc4ccccc4)nc31)[C@H](O)[C@@H]2O [Compound 309, (1S,2R,3S,4R,5S)-2,3-Dihydroxy-N-methyl-4-(6-(methylamino)-2-(phenylethynyl)-9H-purin-9-yl)bicyclo[3.1.0]hexane-1-carboxamide]	18	14		
CNC(=O)[C@@]12C[C@@H]1[C@@H](n1cnc3c(NCc4cccc(Cl)c4)nc(C#Cc4cccc(C(=O)O)c4)nc31)[C@H](O)[C@@H]2O [Compound 333, 3-((6-(3-Chlorobenzylamino)-9-((1S,2R,3S,4R,5S)-3,4-dihydroxy-5-(methylcarbamoyl)bicyclo[3.1.0]hexan-2-yl)-9H-purin-2-yl)ethynyl)benzoic acid]	1	38	6.75 ± 2.78	
CNC(=O)[C@@]12C[C@@H]1[C@@H](n1cnc3c(NC)nc(C#Cc4ccc(Br)cc4)nc31)[C@H](O)[C@@H]2O [Compound 317, (1S,2R,3S,4R,5S)-4-(2-((4-Bromophenyl)ethynyl)-6-(methylamino)-9H-purin-9-yl)-2,3-dihydroxy-N-methylbicyclo[3.1.0]hexane-1-carboxamide]	11	26	0.91 ± 0.06	
